Experiments:
[1] = test system: SGLT2 over SGLT1; conditions: cited from earlier work
[2] = biological target: T1, SGLT2 (Rattus norvegicus, UniProt P53792)
T1 sequence (P53792 1-670): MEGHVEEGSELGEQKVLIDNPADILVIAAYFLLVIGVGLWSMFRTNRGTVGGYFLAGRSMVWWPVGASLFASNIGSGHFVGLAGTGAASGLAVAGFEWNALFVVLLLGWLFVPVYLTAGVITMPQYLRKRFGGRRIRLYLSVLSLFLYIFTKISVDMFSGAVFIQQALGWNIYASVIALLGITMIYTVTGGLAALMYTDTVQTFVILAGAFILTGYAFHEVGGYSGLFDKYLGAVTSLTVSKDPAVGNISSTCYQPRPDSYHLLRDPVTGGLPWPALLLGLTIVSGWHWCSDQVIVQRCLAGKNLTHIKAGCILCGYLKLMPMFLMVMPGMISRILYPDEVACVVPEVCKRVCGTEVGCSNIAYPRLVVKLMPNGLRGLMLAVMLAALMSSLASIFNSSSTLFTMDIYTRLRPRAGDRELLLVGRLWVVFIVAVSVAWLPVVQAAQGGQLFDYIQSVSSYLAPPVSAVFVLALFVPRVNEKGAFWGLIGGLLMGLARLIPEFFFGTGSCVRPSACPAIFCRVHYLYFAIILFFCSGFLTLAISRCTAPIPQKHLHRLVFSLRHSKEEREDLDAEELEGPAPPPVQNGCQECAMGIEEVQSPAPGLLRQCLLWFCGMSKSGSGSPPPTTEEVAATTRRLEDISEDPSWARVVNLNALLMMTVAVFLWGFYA

[3] = cited from earlier work
[4] = for 1-25 hours after oral administration of dapagliflozin; cited from earlier work
[5] = major metabolite of dapagliflozin; cited from earlier work
[6] = cited from earlier work; remark: listed apart in the source
[7] = test system: SGLTs; conditions: cited from earlier work
[8] = test system: GLUTs; conditions: cited from earlier work
[9] = biological target: T2, SGLT1 (Homo sapiens, UniProt P13866); conditions: specific, non-metabolized substrate; cited from earlier work
T2 sequence (P13866 1-664): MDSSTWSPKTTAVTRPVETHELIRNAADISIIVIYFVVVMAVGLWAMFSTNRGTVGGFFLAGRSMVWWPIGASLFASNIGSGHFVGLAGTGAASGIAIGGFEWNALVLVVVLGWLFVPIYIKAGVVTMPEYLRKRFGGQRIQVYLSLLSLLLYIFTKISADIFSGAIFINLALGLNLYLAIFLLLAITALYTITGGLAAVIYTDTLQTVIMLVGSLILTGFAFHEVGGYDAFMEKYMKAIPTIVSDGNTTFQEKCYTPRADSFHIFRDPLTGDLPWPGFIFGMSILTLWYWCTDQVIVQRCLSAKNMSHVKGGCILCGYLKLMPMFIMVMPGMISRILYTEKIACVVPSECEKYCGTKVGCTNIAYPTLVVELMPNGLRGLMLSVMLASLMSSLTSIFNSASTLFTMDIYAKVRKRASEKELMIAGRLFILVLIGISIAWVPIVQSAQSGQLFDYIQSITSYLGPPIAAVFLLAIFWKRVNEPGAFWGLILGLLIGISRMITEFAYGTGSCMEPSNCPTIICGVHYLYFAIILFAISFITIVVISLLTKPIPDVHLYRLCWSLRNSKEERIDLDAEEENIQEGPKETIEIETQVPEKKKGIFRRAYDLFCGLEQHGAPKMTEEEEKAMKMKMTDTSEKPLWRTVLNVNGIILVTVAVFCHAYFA

[10] = biological target: SGLT2 (Homo sapiens, UniProt P31639); conditions: read-out: Ki for SGLT2
Source text: A method of making radiolabeled inhibitors pyranosides is also provided.

[11] = images summed 50-60 minutes post injection
[12] = type 2 diabetic patients, tested doses

Chain of SGLT2 (Homo sapiens, UniProt P31639) (P31639 whole entry): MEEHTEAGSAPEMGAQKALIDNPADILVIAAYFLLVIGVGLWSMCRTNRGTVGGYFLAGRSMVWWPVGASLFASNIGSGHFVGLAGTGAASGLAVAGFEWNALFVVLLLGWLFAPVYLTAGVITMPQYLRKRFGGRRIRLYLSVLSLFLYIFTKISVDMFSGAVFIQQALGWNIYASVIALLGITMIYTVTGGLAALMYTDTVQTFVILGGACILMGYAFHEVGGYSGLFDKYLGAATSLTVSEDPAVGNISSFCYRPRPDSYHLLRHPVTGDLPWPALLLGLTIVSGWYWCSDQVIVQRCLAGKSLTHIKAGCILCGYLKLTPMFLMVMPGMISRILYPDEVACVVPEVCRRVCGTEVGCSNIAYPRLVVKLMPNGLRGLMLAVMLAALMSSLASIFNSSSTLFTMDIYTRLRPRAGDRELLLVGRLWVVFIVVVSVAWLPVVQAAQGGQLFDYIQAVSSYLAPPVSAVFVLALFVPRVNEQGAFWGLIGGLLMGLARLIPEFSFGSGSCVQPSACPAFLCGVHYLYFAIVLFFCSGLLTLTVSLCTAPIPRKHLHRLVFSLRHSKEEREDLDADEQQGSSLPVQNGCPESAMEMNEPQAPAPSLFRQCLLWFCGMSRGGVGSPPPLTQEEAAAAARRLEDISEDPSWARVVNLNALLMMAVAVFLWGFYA

Structure (SMILES): Cc1c(Cc2ccc(OC(C)C)cc2)c(O[C@@H]2O[C@H](CO)[C@@H](O)[C@H](O)[C@H]2O)nn1C(C)C [remogliflozin]
- selectivity among SGLTs (in words) [1]: markedly increased selectivity for SGLT2

Structure (SMILES): CCOc1ccc(Cc2cc([C@@H]3O[C@H](CO)[C@@H](O)[C@H](O)[C@H]3O)ccc2Cl)cc1 [dapagliflozin]
- [18F]-dapagliflozin binding to the kidney cortex after pre-injection of the substance [2, 11]: completely blocked
- weight loss ([3]; over 28-58 weeks): up to 3.5 Kg
- reduction in fasting serum glucose [3, 12]: 22±10%
- reduction in post-prandial glucose absorption (area under the plasma glucose concentration curve) [3, 12]: 20±10%
- sustained urinary glucose excretion [3, 12]: 30-65 gram/day
- increase in hematocrit ([3]; type 2 diabetic patients): up to 3%
- increase in urine volume ([3]; type 2 diabetic patients): up to 470 ml/day
- loss of urinary glucose ([3]; type 2 diabetic patients): 200 to 300 kcal/day
- reduction in diastolic blood pressure ([3]; type 2 diabetic patients): 2-5 mm Hg

Structure (SMILES): CCOc1ccc(Cc2cc([C@@H]3O[C@H](CO)[C@@H](O)[C@H](O[C@@H]4O[C@H](C(=O)O)[C@@H](O)[C@H](O)[C@H]4O)[C@H]3O)ccc2Cl)cc1 [dapagliflozin 3-O-glucuronide]
- plasma level of the metabolite versus native drug [4]: higher than the native drug
- activity of the metabolite [5]: inactive

Structure (SMILES): COC(=O)OC[C@H]1O[C@@H](Oc2cc(C)cc(O)c2C(=O)CCc2ccc3occc3c2)[C@H](O)[C@@H](O)[C@@H]1O [T-1095]
- blood glucose levels ([6]; diabetic animals): lowered blood glucose levels
- renal glucose excretion ([6]; diabetic animals): resulted in renal glucose excretion
- hyperinsulinemia and hypertriglyceridemia ([6]; diabetic rodents): reduced hyperinsulinemia and hypertriglyceridemia
- post-prandial hyperglycemia ([6]; diabetic rodents): suppressed post-prandial hyperglycemia
- absorption of the pro-drug ([6]; oral): absorbed from the gut into the circulation
- selectivity among SGLTs (in words) [1]: nonselective

Structure (SMILES): O=C[C@@H](O)[C@@H](O)[C@H](O)[C@H](O)CO [mannose]
- substrate for SGLTs [7]: poor substrates

Structure (SMILES): Cc1cc(OCCCNCC(C)(C)C(N)=O)ccc1Cc1c(O[C@@H]2O[C@H](CO)[C@@H](O)[C@H](O)[C@H]2O)n[nH]c1C(C)C [DSP-3235]
- selectivity among SGLTs (in words) [1]: targets SGLT1

Structure (SMILES): CO[C@H]1O[C@H](CO)[C@@H](O)[C@H](O)[C@H]1O [alpha-methyl-D-glucopyranoside]
- substrate for GLUTs [8]: not a substrate
- concentration reached in cells above plasma concentrations [9]: ≤ 800 fold

Structure (SMILES): CCOc1ccc(Cc2cc([C@@H]3O[C@H](CO)[C@@H]([18F])[C@H](O)[C@H]3O)ccc2Cl)cc1 [[18F]-dapagliflozin, (1S)-1,5-anhydro-1-C-{4-chloro-3-[(4-ethoxyphenyl)methyl]phenyl}-4-[18F]-4-deoxy-D-glucitol]
- tracer binding site in microPET image [2, 11]: binding to the outer cortex of the kidney
- 18F-activity in the intestine ([2]; with pre-injection of dapagliflozin or phlorizin): excretion by the liver into bile

Structure (SMILES): O=CC[C@@H](O)[C@H](O)[C@H](O)CO [2-deoxy-D-glucose]
- substrate for SGLTs [7]: poor substrates

Structure (SMILES): O=C(CCc1ccc(O)cc1)c1c(O)cc(O)cc1O[C@@H]1O[C@H](CO)[C@@H](O)[C@H](O)[C@H]1O [Phlorizin]
- [18F]-dapagliflozin binding to the kidney cortex after pre-injection of the substance [2, 11]: completely blocked

Structure (SMILES): CCOc1ccc(Cc2cc([C@@H]3O[C@H](CO)[C@@H](F)[C@H](O)[C@H]3O)ccc2Cl)cc1 [[18F]-dapagliflozin, (1S)-1,5-anhydro-1-C-{4-chloro-3-[(4-ethoxyphenyl)methyl]phenyl}-4-[18F]-4-deoxy-D-glucitol]
- Ki [10]: 1 to 5 nM

Structure (SMILES): O=C[C@H]([18F])[C@@H](O)[C@H](O)[C@H](O)CO [2-FDG, 2-deoxy-2-[18F]fluoro-D-glucose]
- substrate for SGLTs [7]: not a substrate

— patent publication US20140271474A1, “INHIBITOR PROBES FOR IMAGING SODIUM-GLUCOSE COTRANSPORTERS IN HEALTH AND DISEASE” (THE REGENTS OF THE UNIVERSITY OF CALIFORNIA, priority 2011, published 2014)
